pKd: −log10 of the molar value.
Target: T1, MsBP (modified sugar-binding protein, MITS9220_00117), zinc-bound Zn-MsBP
T1 construct: Tat signal peptide removed, N-terminal hexahistidine tag with thrombin cleavage site (pET15-b)
Assay: ITC of purified MsBP pre-incubated with Zn2+ ([…]x molar excess); supported by DSF (TM […] °C with Zn and FBP)
Design: species or system Synechococcus sp. MIT S9220

- pKd: 5.24
SMILES: O=P(O)(O)OC[C@H]1OC(O)(COP(=O)(O)O)[C@@H](O)[C@@H]1O (stereo partly shown) [FBP, fructose-1,6-bisphosphate]

— paper PMC8938411, “Novel functional insights into a modified sugar-binding protein from Synechococcus MITS9220” (Scientific Reports, 2022)
